# Measured values taken from US20240417410A1, “TRICYCLIC COMPOUNDS FOR THE TREATMENT OF CANCER” (Hoffmann-La Roche Inc., priority 2023, published 2024).
# Assays:
# [1] = target: KRAS G12C-BRAF complex (Homo sapiens (Human), UniProt P01116+P62937, G12C); test: KRAS-BRAF with CYPA (500 nM) interaction assay (TR-FRET, Example 136); format: biochemical; conditions: KRAS G12C-BRAF disruption
# [2] = tested on: NCI-H358 cells (KRAS G12C); test: Cell viability assay (Cell Counting Kit-8, 3-day); format: cell-based, human; conditions: Homo sapiens, NCI-H358, 72 h, NCI-H358, 72 hrs incubation
# Summary of the method: (§1)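 Cells were seeded at 5,000 cells/well (NCI-H358) or 2,000 cells/well (AGS, SW620), incubated overnight, then treated with compounds in 0.5% DMSO final for 72 hrs. CCK-8 was added and OD450 minus OD650 read after 2 hrs; IC50 came from a 4-parameter sigmoidal fit.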
# [3] = tested on: SW620 cells (KRAS G12V); test: Cell viability assay (Cell Counting Kit-8, 3-day); format: cell-based, human; conditions: Homo sapiens, SW-620; SW620, 72 hrs incubation
# Summary of the method: as §1
# [4] = tested on: AGS cells (KRAS G12D); test: Cell viability assay (Cell Counting Kit-8, 3-day); format: cell-based, human; conditions: Homo sapiens, 72 h, 72 hrs incubation
# Summary of the method: as §1
# [5] = tested on: phosphorylation of ERK, KRAS G12C in NCI-H358 cells; test: pERK inhibition assay; format: cell-based; conditions: Homo sapiens, NCI-H358, 4 h
# Summary of the method: (§2)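 Phospho-ERK quantified by in-cell ELISA with TMB read-out at OD450 following 4 h compound exposure (final 0.5% DMSO). Cell lines were SW620 (KRAS G12V), AGS (G12D) and NCI-H358 (G12C), grown in RPMI-1640 with 10% FBS. A 4-parameter sigmoidal model gave the IC50.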
# [6] = tested on: phosphorylation of ERK, KRAS G12V in SW620; test: pERK inhibition assay; format: cell-based; conditions: Homo sapiens, SW-620, 4 h, SW620 cells
# Summary of the method: as §2
# [7] = tested on: phosphorylation of ERK, KRAS G12D in AGS cells; test: pERK inhibition assay; format: cell-based; conditions: Homo sapiens, AGS, 4 h
# Summary of the method: as §2
# KRAS G12C-BRAF complex, sequence (P01116-2 other isoform, or with tags, fused parts or gaps G12C): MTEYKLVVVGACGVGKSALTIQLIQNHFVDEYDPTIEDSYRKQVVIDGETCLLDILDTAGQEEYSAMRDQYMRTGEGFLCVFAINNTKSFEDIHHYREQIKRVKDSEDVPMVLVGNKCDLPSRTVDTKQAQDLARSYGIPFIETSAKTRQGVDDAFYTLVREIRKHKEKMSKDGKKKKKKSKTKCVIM
# KRAS G12C-BRAF complex, sequence (P62937 whole entry): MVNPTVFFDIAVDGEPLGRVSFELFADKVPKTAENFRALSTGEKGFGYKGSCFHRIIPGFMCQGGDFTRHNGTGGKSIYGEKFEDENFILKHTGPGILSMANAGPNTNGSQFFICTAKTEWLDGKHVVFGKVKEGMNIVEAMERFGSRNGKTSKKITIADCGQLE
SMILES,IC50 [1],IC50 [2],IC50 [3],IC50 [4],IC50 [5],IC50 [6],IC50 [7]
"CO[C@@H](C)c1ncc(N2CCN(C)CC2)cc1-c1c2c3cc(cc4c3n1CCC4)-c1csc(n1)C[C@H](NC(=O)[C@H]1C[C@@H]1c1cccnn1)C(=O)N1CCC[C@H](N1)C(=O)OCC(C)(C)C2 (atropisomer, axis not shown; (M)) [Example 63, (1S,2S)-N-[(7S,13S)-(20M)-20-[2-[(1S)-1-methoxyethyl]-5-(4-methylpiperazin-1-yl)-3-pyridyl]-17,17-dimethyl-8,14-dioxo-15-oxa-4-thia-9,21,30,31-tetrazahexacyclo[23.3.1.1^2,5.1^9,13.0^19,27.0^21,26]hentriaconta-1 (28),2,5 (31), 19,25 (29),26-hexaen-7-yl]-2-pyridazin-3-yl-cyclopropanecarboxamide]",34 nM,10.6 nM,4.2 nM,78 nM,5.1 nM,3 nM,18.3 nM
"CO[C@@H](C)c1ncc(N2CCN3CCOC[C@@H]3C2)cc1-c1c2c3cc(cc4c3n1CCC4)-c1csc(n1)C[C@H](NC(=O)[C@H]1C[C@@H]1c1cccnc1)C(=O)N1CCC[C@H](N1)C(=O)OCC(C)(C)C2 (atropisomer, axis not shown; (M)) [Example 104, (1S,2S)-N-[(7S,13S)-(20M)-20-[5-[(9αS)-3,4,6,7,9,9a-hexahydro-1H-pyrazino[2,1-c][1,4]oxazin-8-yl]-2-[(1S)-1-methoxyethyl]-3-pyridyl]-17,17-dimethyl-8,14-dioxo-15-oxa-4-thia-9,21,30,31-tetrazahexacyclo[23.3.1.1^2,5.1^9,13.0^19,27.0^21,26]hentriaconta-1 (28),2,5 (31),19,25 (29),26-hexaen-7-yl]-2-(3-pyridyl)cyclopropanecarboxamide]",9.8 nM,0.8 nM,0.2 nM,3.8 nM,1 nM,0.4 nM,1.6 nM
"CO[C@@H](C)c1ncc(N2CCN(C3CC3)CC2)cc1-c1c2c3cc(cc4c3n1CCO4)-c1csc(n1)C[C@H](NC(=O)[C@H]1[C@H](C)[C@@H]1C)C(=O)N1CCC[C@H](N1)C(=O)OCC(C)(C)C2 (atropisomer, axis not shown; (M)) [Example 106, (1r,2R,3S)-N-[(7S,13S)-(20M)-20-[5-(4-cyclopropylpiperazin-1-yl)-2-[(1S)-1-methoxyethyl]-3-pyridyl]-17,17-dimethyl-8,14-dioxo-15,24-dioxa-4-thia-9,21,30,31-tetrazahexacyclo[23.3.1.1^2,5.1^9,13.0^19,27.0^21,26]hentriaconta-1 (28),2,5 (31),19,25 (29),26-hexaen-7-yl]-2,3-dimethyl-cyclopropanecarboxamide]",10.8 nM,4.4 nM,0.4 nM,8.7 nM,1.1 nM,0.4 nM,3.1 nM
"CO[C@@H](C)c1ncc(N2CCN3CCCC[C@@H]3C2)cc1-c1c2c3cc(cc4c3n1CCC4)-c1csc(n1)C[C@H](NC(=O)[C@H]1C[C@@H]1c1cncnc1)C(=O)N1CCC[C@H](N1)C(=O)OCC(C)(C)C2 (atropisomer, axis not shown; (M)) [Example 103, (1S,2S)-N-[(7S,13S)-(20M)-20-[5-[(9αR)-1,3,4,6,7,8,9,9a-octahydropyrido[1,2-a]pyrazin-2-yl]-2-[(1S)-1-methoxyethyl]-3-pyridyl]-17,17-dimethyl-8,14-dioxo-15-oxa-4-thia-9,21,30,31-tetrazahexacyclo[23.3.1.1^2,5.1^9,13.0^19,27.0^21,26]hentriaconta-1 (28),2,5 (31),19,25 (29),26-hexaen-7-yl]-2-pyrimidin-5-yl-cyclopropanecarboxamide]",6 nM,1.3 nM,0.4 nM,5.2 nM,0.7 nM,0.7 nM,2.4 nM
"CO[C@@H](C)c1ncc(N2CCN(C)CC2)cc1-c1c2c3cc(cc4c3n1CCC4)-c1csc(n1)C[C@H](NC(=O)[C@@H]1C[C@H]1c1cncnc1C)C(=O)N1CCC[C@H](N1)C(=O)OCC(C)(C)C2 (atropisomer, axis not shown; (M)) [Example 112, (1R,2R)-N-[(7S,13S)-(20M)-20-[2-[(1S)-1-methoxyethyl]-5-(4-methylpiperazin-1-yl)-3-pyridyl]-17,17-dimethyl-8,14-dioxo-15-oxa-4-thia-9,21,30,31-tetrazahexacyclo[23.3.1.1^2,5.1^9,13.0^19,27.0^21,26]hentriaconta-1 (28),2,5 (31), 19,25 (29),26-hexaen-7-yl]-2-(4-methylpyrimidin-5-yl)cyclopropanecarboxamide]",10.4 nM,2.2 nM,0.8 nM,3.4 nM,0.7 nM,0.5 nM,3.4 nM
"CO[C@@H](C)c1ncc(N2CCN3CCOC[C@@H]3C2)cc1-c1c2c3cc(cc4c3n1CCC4)-c1csc(n1)C[C@H](NC(=O)[C@H]1C[C@@H]1c1cncnc1)C(=O)N1CCC[C@H](N1)C(=O)OCC(C)(C)C2 (atropisomer, axis not shown; (M)) [Example 105, (1S,2S)-N-[(7S,13S)-(20M)-20-[5-[(9αS)-3,4,6,7,9,9a-hexahydro-1H-pyrazino[2,1-c][1,4]oxazin-8-yl]-2-[(1S)-1-methoxyethyl]-3-pyridyl]-17,17-dimethyl-8,14-dioxo-15-oxa-4-thia-9,21,30,31-tetrazahexacyclo[23.3.1.1^2,5.1^9,13.0^19,27.0^21,26]hentriaconta-1 (28),2,5 (31),19,25 (29),26-hexaen-7-yl]-2-pyrimidin-5-yl-cyclopropanecarboxamide]",13.3 nM,1.5 nM,0.6 nM,6.8 nM,1.5 nM,0.4 nM,2.2 nM
"CO[C@@H](C)c1ncc(N2CCN(CC(F)(F)F)CC2)cc1-c1c2c3cc(cc4c3n1CCC4)-c1csc(n1)C[C@H](NC(=O)[C@H]1[C@H](C)[C@@H]1C)C(=O)N1CCC[C@H](N1)C(=O)OCC(C)(C)C2 (atropisomer, axis not shown; (M)) [Example 86, (1r,2R,3S)-N-[(7S,13S)-(20M)-20-[2-[(1S)-1-methoxyethyl]-5-[4-(2,2,2-trifluoroethyl)piperazin-1-yl]-3-pyridyl]-17,17-dimethyl-8,14-dioxo-15-oxa-4-thia-9,21,30,31-tetrazahexacyclo[23.3.1.1^2,5.1^9,13.0^19,27.0^21,26]hentriaconta-1 (28),2,5 (31),19,25 (29),26-hexaen-7-yl]-2,3-dimethyl-cyclopropanecarboxamide]",17.9 nM,14.1 nM,2.5 nM,45.2 nM,1.8 nM,0.8 nM,15 nM
"CO[C@@H](C)c1ncc(N2CCN(C)CC2)cc1-c1c2c3cc(cc4c3n1CCC4)-c1csc(n1)C[C@H](NC(=O)[C@H]1C[C@@H]1c1cnccn1)C(=O)N1CCC[C@H](N1)C(=O)OCC(C)(C)C2 (atropisomer, axis not shown; (M)) [Example 99, (1S,2S)-N-[(7S,13S)-(20M)-20-[2-[(1S)-1-methoxyethyl]-5-(4-methylpiperazin-1-yl)-3-pyridyl]-17,17-dimethyl-8,14-dioxo-15-oxa-4-thia-9,21,30,31-tetrazahexacyclo[23.3.1.1^2,5.1^9,13.0^19,27.0^21,26]hentriaconta-1 (28),2,5 (31), 19,25 (29),26-hexaen-7-yl]-2-pyrazin-2-yl-cyclopropanecarboxamide]",12.6 nM,2.1 nM,0.4 nM,7.8 nM,0.5 nM,0.4 nM,1.9 nM
"CCN1CCN(c2cnc([C@H](C)OC)c(-c3c4c5cc(cc6c5n3CCC6)-c3csc(n3)C[C@H](NC(=O)[C@H]3[C@H](C)[C@@H]3C)C(=O)N3CCC[C@H](N3)C(=O)OCC(C)(C)C4)c2)CC1 (atropisomer, axis not shown; (M)) [Example 113, (1r,2R,3S)-N-[(7S,13S)-(20M)-20-[5-(4-ethylpiperazin-1-yl)-2-[(1S)-1-methoxyethyl]-3-pyridyl]-17,17-dimethyl-8,14-dioxo-15-oxa-4-thia-9,21,30,31-tetrazahexacyclo[23.3.1.1^2,5.1^9,13.0^19,27.0^21,26]hentriaconta-1 (28),2,5 (31), 19,25 (29),26-hexaen-7-yl]-2,3-dimethyl-cyclopropanecarboxamide]",4.3 nM,2.1 nM,0.3 nM,1.5 nM,0.6 nM,0.4 nM,2.2 nM
"CO[C@@H](C)c1ncc(N2CCN(C)CC2)cc1-c1c2c3cc(cc4c3n1CC(F)(F)C4)-c1csc(n1)C[C@H](NC(=O)[C@H]1[C@H](C)[C@@H]1C)C(=O)N1CCC[C@H](N1)C(=O)OCC(C)(C)C2 (atropisomer, axis not shown; (M)) [Example 83]",10.3 nM,3.1 nM,0.5 nM,9.2 nM,0.9 nM,0.5 nM,6 nM
